Laboratory results as given in US6914045B2, “Glycopeptide antibiotics” (Wyeth Holdings Corporation, priority 2001, dated 2005).
Converted amounts (≈) assume the structure as drawn. Each block holds one compound with its values, some of them ahead of it.

Key:
Assay in all cases: in vitro antibacterial evaluation, MIC by broth dilution
Format in all cases: cell-based
Staphylococcus sp. = settings: broth dilution, 18 hours at 35° C.; for MIC Staphylococcus aureus (ATCC 29213): strain ATCC 29213; for MIC Staphylococcus aureus (GC 1131): strain GC 1131; for MIC Staphylococcus aureus (GC 3051): strain GC 3051; for MIC Staphylococcus aureus (GC 3053): strain GC 3053; for MIC Staphylococcus aureus (GC 4541): strain GC 4541; for MIC Staphylococcus aureus (GC 4542): strain GC 4542; for MIC Staphylococcus aureus-SMITH (GC 4543): strain GC 4543; for MIC Staphylococcus aureus (GC 4544): strain GC 4544; for MIC Staphylococcus aureus (GC 4545): strain GC 4545; for MIC Staphylococcus haemolyticus (GC 4546): strain GC 4546; for MIC Coagulase Negative Staphylococcus (GC 4547): strain GC 4547; for MIC Coagulase Negative Staphylococcus (GC 4548): strain GC 4548; for MIC Coagulase Negative Staphylococcus (GC 4549): strain GC 4549; for MIC Coagulase Negative Staphylococcus (GC 4551): strain GC 4551
Method in brief: (§1)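 Broth dilution per NCCLS standard M7-A2 in Muller-Hinton II […], with an inoculum of 5×10^5 CFU/mL and antibiotic spanning 64-0.06 μg/mL. The MIC is the lowest concentration that inhibits growth of the organism.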

Streptococcus sp. = settings: broth dilution, 18 hours at 35° C.
Method in brief: as §1

Enterococcus sp. = settings: broth dilution, 18 hours at 35° C.
Method in brief: as §1

Escherichia coli = settings: 18 hours at 35° C.

MIC Staphylococcus aureus (ATCC 29213) (Staphylococcus sp.): 4 µg/mL (≈ 2.87 µM)
MIC Staphylococcus aureus (GC 1131) (Staphylococcus sp.): 4 µg/mL (≈ 2.87 µM)
MIC Staphylococcus aureus (GC 3051) (Staphylococcus sp.): 4 µg/mL (≈ 2.87 µM)
MIC Staphylococcus aureus (GC 3053) (Staphylococcus sp.): 8 µg/mL (≈ 5.74 µM)
MIC Staphylococcus aureus (GC 4541) (Staphylococcus sp.): 4 µg/mL (≈ 2.87 µM)
MIC Staphylococcus aureus (GC 4542) (Staphylococcus sp.): 4 µg/mL (≈ 2.87 µM)
MIC Staphylococcus aureus-SMITH (GC 4543) (Staphylococcus sp.): 2 µg/mL (≈ 1.44 µM)
MIC Staphylococcus aureus (GC 4544) (Staphylococcus sp.): 8 µg/mL (≈ 5.74 µM)
MIC Staphylococcus aureus (GC 4545) (Staphylococcus sp.): 4 µg/mL (≈ 2.87 µM)
MIC Coagulase Negative Staphylococcus (GC 4547) (Staphylococcus sp.): 4 µg/mL (≈ 2.87 µM)
MIC Coagulase Negative Staphylococcus (GC 4548) (Staphylococcus sp.): 1 µg/mL (≈ 0.718 µM)
MIC Coagulase Negative Staphylococcus (GC 4549) (Staphylococcus sp.): 2 µg/mL (≈ 1.44 µM)
MIC Coagulase Negative Staphylococcus (GC 4551) (Staphylococcus sp.): 8 µg/mL (≈ 5.74 µM)
MIC Streptococcus agalactiae (GC 4564) (Streptococcus sp.): 2 µg/mL (≈ 1.44 µM)
MIC Streptococcus pneumoniae (ATCC 6301) (Streptococcus sp.): 1 µg/mL (≈ 0.718 µM)
MIC Streptococcus pneumoniae (GC 1894) (Streptococcus sp.): 0.25 µg/mL (≈ 0.179 µM)
MIC Streptococcus pneumoniae (GC 4565) (Streptococcus sp.): 0.5 µg/mL (≈ 0.359 µM)
MIC Streptococcus pyogenes (GC 4563) (Streptococcus sp.): 1 µg/mL (≈ 0.718 µM)
MIC Streptococcus pneumoniae (ATCC 6301) (Streptococcus sp.; inoculum 5×10^5 CFU/mL, strain ATCC 6301): 1 µg/mL (≈ 0.718 µM)
MIC Streptococcus pneumoniae (GC 1894) (Streptococcus sp.; inoculum 5×10^5 CFU/mL, strain GC 1894): 0.25 µg/mL (≈ 0.179 µM)
MIC Streptococcus pyogenes (GC 4563) (Streptococcus sp.; inoculum 5×10^5 CFU/mL, strain GC 4563): 1 µg/mL (≈ 0.718 µM)
MIC Streptococcus agalactiae (GC 4564) (Streptococcus sp.; inoculum 5×10^5 CFU/mL, strain GC 4564): 2 µg/mL (≈ 1.44 µM)
MIC Streptococcus pneumoniae (GC 4565) (Streptococcus sp.; inoculum 5×10^5 CFU/mL, strain GC 4565): 0.5 µg/mL (≈ 0.359 µM)
MIC Enterococcus avium (GC 4558) (Enterococcus sp.): 16 µg/mL (≈ 11.5 µM)
MIC Enterococcus faecalis (ATCC 29212) (Enterococcus sp.): 16 µg/mL (≈ 11.5 µM)
MIC Enterococcus faecalis (GC 2242) (Enterococcus sp.): 16 µg/mL (≈ 11.5 µM)
MIC Enterococcus faecalis (GC 2691) (Enterococcus sp.): 16 µg/mL (≈ 11.5 µM)
MIC Enterococcus faecalis (GC 3059) (Enterococcus sp.): 32 µg/mL (≈ 23 µM)
MIC Enterococcus faecalis (GC 4552) (Enterococcus sp.): 16 µg/mL (≈ 11.5 µM)
MIC Enterococcus faecalis (GC 4553) (Enterococcus sp.): 32 µg/mL (≈ 23 µM)
MIC Enterococcus faecalis (GC 4554) (Enterococcus sp.): 32 µg/mL (≈ 23 µM)
MIC Enterococcus faecalis (GC 6189) (Enterococcus sp.): 16 µg/mL (≈ 11.5 µM)
MIC Enterococcus faecium (GC 2243) (Enterococcus sp.): 16 µg/mL (≈ 11.5 µM)
MIC Enterococcus faecium (GC 4556) (Enterococcus sp.): 16 µg/mL (≈ 11.5 µM)
MIC Enterococcus faecium (GC 4557) (Enterococcus sp.): 8 µg/mL (≈ 5.74 µM)
MIC Enterococcus faecalis (ATCC 29212) (Enterococcus sp.; inoculum 5×10^5 CFU/mL, strain ATCC 29212): 16 µg/mL (≈ 11.5 µM)
MIC Enterococcus faecalis (GC 2242) (Enterococcus sp.; inoculum 5×10^5 CFU/mL, strain GC 2242): 16 µg/mL (≈ 11.5 µM)
MIC Enterococcus faecium (GC 2243) (Enterococcus sp.; inoculum 5×10^5 CFU/mL, strain GC 2243): 16 µg/mL (≈ 11.5 µM)
MIC Enterococcus faecalis (GC 2691) (Enterococcus sp.; inoculum 5×10^5 CFU/mL, strain GC 2691): 16 µg/mL (≈ 11.5 µM)
MIC Enterococcus faecalis (GC 3059) (Enterococcus sp.; inoculum 5×10^5 CFU/mL, strain GC 3059): 32 µg/mL (≈ 23 µM)
MIC Enterococcus faecalis (GC 4552) (Enterococcus sp.; inoculum 5×10^5 CFU/mL, strain GC 4552): 16 µg/mL (≈ 11.5 µM)
MIC Enterococcus faecalis (GC 4553) (Enterococcus sp.; inoculum 5×10^5 CFU/mL, strain GC 4553): 32 µg/mL (≈ 23 µM)
MIC Enterococcus faecalis (GC 4554) (Enterococcus sp.; inoculum 5×10^5 CFU/mL, strain GC 4554): 32 µg/mL (≈ 23 µM)
MIC Enterococcus faecium (GC 4556) (Enterococcus sp.; inoculum 5×10^5 CFU/mL, strain GC 4556): 16 µg/mL (≈ 11.5 µM)
MIC Enterococcus faecium (GC 4557) (Enterococcus sp.; inoculum 5×10^5 CFU/mL, strain GC 4557): 8 µg/mL (≈ 5.74 µM)
MIC Enterococcus avium (GC 4558) (Enterococcus sp.; inoculum 5×10^5 CFU/mL, strain GC 4558): 16 µg/mL (≈ 11.5 µM)
MIC Enterococcus faecalis (GC 6189) (Enterococcus sp.; inoculum 5×10^5 CFU/mL, strain GC 6189): 16 µg/mL (≈ 11.5 µM)
MIC Escherichia coli (ATCC 25922) (Escherichia coli): 64 µg/mL (≈ 45.9 µM)
MIC Escherichia coli (GC 4559) (Escherichia coli): 32 µg/mL (≈ 23 µM)
MIC Escherichia coli (GC 4560) (Escherichia coli): 2 µg/mL (≈ 1.44 µM)
SMILES: CC(c1ccccc1)C1NC(=O)CNC(=O)C(CO)NC(=O)C(C(O)C2CNC(=N)N2C2OC(CO)C(O)C(O)C2O)NC(=O)C(C(O)C2CNC(=N)N2)NC(=O)C(Cc2ccc(OC3OC(CO)C(OC4OC5COC6(CCSCC6)OC5C(O)C4O)C(O)C3O)cc2)NC1=O (centres unmarked) [Example 217]
MIC Staphylococcus haemolyticus (GC 4546) (Staphylococcus sp.): 2 µg/mL (≈ 1.44 µM)

MIC Staphylococcus aureus (ATCC 29213) (Staphylococcus sp.): >128 µg/mL
MIC Staphylococcus aureus (GC 1131) (Staphylococcus sp.): >128 µg/mL
MIC Staphylococcus aureus (GC 3051) (Staphylococcus sp.): >128 µg/mL
MIC Staphylococcus aureus (GC 3053) (Staphylococcus sp.): >128 µg/mL
MIC Staphylococcus aureus (GC 4541) (Staphylococcus sp.): >128 µg/mL
MIC Staphylococcus aureus (GC 4542) (Staphylococcus sp.): >128 µg/mL
MIC Staphylococcus aureus-SMITH (GC 4543) (Staphylococcus sp.): >128 µg/mL
MIC Staphylococcus aureus (GC 4544) (Staphylococcus sp.): >128 µg/mL
MIC Staphylococcus aureus (GC 4545) (Staphylococcus sp.): >128 µg/mL
MIC Coagulase Negative Staphylococcus (GC 4547) (Staphylococcus sp.): >128 µg/mL
MIC Coagulase Negative Staphylococcus (GC 4548) (Staphylococcus sp.): >128 µg/mL
MIC Coagulase Negative Staphylococcus (GC 4549) (Staphylococcus sp.): >128 µg/mL
MIC Coagulase Negative Staphylococcus (GC 4551) (Staphylococcus sp.): >128 µg/mL
MIC Coagulase Negative Staphylococcus (GC 6257) (Staphylococcus sp.; strain GC 6257): >128 µg/mL
MIC Streptococcus pneumoniae (ATCC 6301) (Streptococcus sp.; strain ATCC 6301): >128 µg/mL
MIC Streptococcus pneumoniae (GC 1894) (Streptococcus sp.; strain GC 1894): 128 µg/mL (≈ 115 µM)
MIC Streptococcus pyogenes (GC 4563) (Streptococcus sp.; strain GC 4563): >128 µg/mL
MIC Streptococcus agalactiae (GC 4564) (Streptococcus sp.; strain GC 4564): >128 µg/mL
MIC Streptococcus pneumoniae (GC 4565) (Streptococcus sp.; strain GC 4565): >128 µg/mL
MIC Enterococcus faecalis (ATCC 29212) (Enterococcus sp.; strain ATCC 29212): >128 µg/mL
MIC Enterococcus faecalis (GC 2242) (Enterococcus sp.; strain GC 2242): >128 µg/mL
MIC Enterococcus faecium (GC 2243) (Enterococcus sp.; strain GC 2243): >128 µg/mL
MIC Enterococcus faecalis (GC 2691) (Enterococcus sp.; strain GC 2691): >128 µg/mL
MIC Enterococcus faecalis (GC 3059) (Enterococcus sp.; strain GC 3059): >128 µg/mL
MIC Enterococcus faecalis (GC 4552) (Enterococcus sp.; strain GC 4552): >128 µg/mL
MIC Enterococcus faecalis (GC 4553) (Enterococcus sp.; strain GC 4553): >128 µg/mL
MIC Enterococcus faecalis (GC 4554) (Enterococcus sp.; strain GC 4554): >128 µg/mL
MIC Enterococcus faecium (GC 4556) (Enterococcus sp.; strain GC 4556): >128 µg/mL
MIC Enterococcus faecium (GC 4557) (Enterococcus sp.; strain GC 4557): 128 µg/mL (≈ 115 µM)
MIC Enterococcus avium (GC 4558) (Enterococcus sp.; strain GC 4558): 128 µg/mL (≈ 115 µM)
MIC Enterococcus faecalis (GC 6189) (Enterococcus sp.; strain GC 6189): >128 µg/mL
MIC Escherichia coli (ATCC 25922) (Escherichia coli; strain ATCC 25922, broth dilution): >128 µg/mL
MIC Escherichia coli (GC 4559) (Escherichia coli; strain GC 4559, broth dilution): >128 µg/mL
MIC Escherichia coli (GC 4560) (Escherichia coli; strain GC 4560, broth dilution): >128 µg/mL
SMILES: CC(c1ccccc1)C1NC(=O)CNC(=O)C(CO)NC(=O)C(C(O)C2CNC(=N)N2C2OC(CO)C(O)C(O)C2O)NC(=O)C(C(O)C2CNC(=N)N2)NC(=O)C(Cc2ccc3oc(-c4ccc(C(=O)O)cc4)nc3c2)NC1=O (stereo not drawn) [Example 25, Cyclo[3-[2-(4-carboxyphenyl)-1,3-benzoxazol-5-yl]alanyl-3-(2-iminoimidazolidin-4-yl)seryl-3-(3-hexopyranosyl-2-iminoimidazolidin-4-yl)serylserylglycyl-β-methylphenylalanyl]]
MIC Staphylococcus haemolyticus (GC 4546) (Staphylococcus sp.): >128 µg/mL
